Among the data in patent US12653830B2, “Substituted imidazoquinoxaline compounds and uses thereof” (Impact Therapeutics (Shanghai), Inc, priority 2019, dated 2026) are inhibition and IC50 values, retold here.

Where two headings read alike, the source gives them in different places. Bounds are passed on as bounds.

The target of one assay is T1, ATM kinase (Homo sapiens, UniProt Q13315).
T1 construct: purchased Eurofins 14-933
Description: In vitro ATM kinase assay (Cisbio HTRF, p53 substrate). The class given is biochemical. To be noted: 30 μM ATP; for inhibition at 0.0001 µM: Conc. 0.1 nM; for inhibition at 0.0001 µM / inhibition at 0.001 µM / inhibition at 0.01 µM: read-out: Inh % (inhibitory effect on ATM kinase activity); for inhibition at 0.001 µM: Conc. 1 nM; for inhibition at 0.01 µM: Conc. 10 nM. Here is the method: Determination of the Inhibitory Effect In Vitro of the Compound of Example 2 and its Analogues on ATM Using In Vitro ATM Kinase Assay
ATM enzymatic activity was measured using Cisbio's HTRF reagent in a 384-well plate (Greiner, #784075). […] The mixtures were centrifuged at 1000 rpm for 1 minute, and reacted in dark for 30 minutes at room temperature. Then, 5 μL of EDTA termination solution (250 mm) was added to terminate the reaction. After 5 μL of detection mixture (Anti-phospho-p53 (ser15)-K (Cisbio, #61P08KAE, 0.084 ng/μL) and Anti-GST-d2 (Cisbio, #61GSTDLA, 5.00 ng/μL)) was finally added to each well, the mixtures were cultured at room temperature over night, and the fluorescence values at 665 nm and 615 nm were measured on Envision 2104. The final concentration of each reagent of the experiment was as follows: 12.5 mM HEPES (pH8.0), 0.5% glycerol, 0.005% Brij-35, 0.625 mM DTT, 0.0125% BSA, 15 nM p53, 0.25 ng/μL ATM, 30 μM ATP, 2.5 mM Mg(AcO)2, 2.5 mM MnCl2, 62.5 mM EDTA, 0.021 ng/μL Anti-phospho-p53, 1.25 ng/μL Anti-GST-d2.
Relative fluorescence ratio was calculated: Ratio665 nm/615 nm−Ratiobackground, and inhibition rate %=(1−(relative fluorescence ratio of test compound well−relative fluorescence ratio of positive control well)/(relative fluorescence ratio of negative control well−relative fluorescence ratio of positive control well))×100 was calculated. Data were analyzed using GraphPad Prism6.0 and fitted using the curve equation: Y=Bottom+(Top−Bottom)/(1+10^((Log IC50−X)*HillSlope)), and IC50 values were calculated.

The test system of assay [1] is human colon cancer cell SW620. Description: MTT proliferation assay in combination with CPT-11, SW620. In kind it is cell-based. To be noted: medium containing 205 nM CPT-11, 5 days, read-out: IC50, inhibition of proliferation of SW620 combined with CPT-11. As for the experimental part:
Determination of the Inhibitory Effect of the Compound of Example 2 and its Analogues in Combination with CPT-11 on the Proliferation of Human Colon Cancer Cell SW620 Using MTT Assay
The human colon cancer cells SW620 were cultured in RPMI 1640 medium with 10% FBS and used at about 90% confluence for experiments. The SW620 cells were digested with trypsinase and centrifuged at 800 rpm for 5 minutes. The supernatant was discarded and the cell pellets were resuspended with fresh medium (RPMI 1640+10% FBS). The cells were seeded into 96-well cell culture plates with appropriate cell density and incubated at 37° C. overnight in a 5% CO2 incubator. […] The first concentration was 1 μM or 0.333 μM, the last concentration was DMSO negative control (0 μM). 5 μL of solutions of each concentration was added to 120 μL of medium (a 25 times dilution) and mixed by shaking. The cells were cultured overnight and the culture medium was replaced with 195 μL/well of fresh medium containing 205 nM CPT-11 and 5 μL/well of medium containing the test compound (the final concentration of DMSO was 1%). The culture plates were returned to incubator and cultured at 37° C., 5% CO2 for 5 days. At the day of experiment, medium was discarded and replaced with 100 μL of fresh serum-free DMEM medium containing MTT (0.5 mg/mL), and the culture was continued. 4 hours later, the medium was discarded and replaced with 100 μL/well of DMSO, the plate was shaken for 10 minutes in dark and the absorbance was measured at the wavelengths of 552 and 690 nm using a multi-function plate reader. Data were analyzed by Graph Pad Prism 6.0. The inhibitory effects of compounds on cell proliferation were plotted based on cell viability vs. the logarithm of compound concentration. Cell viability %=(ODcompound−ODbackground)/(ODDMSO−ODbackground)×100.
Table 3 summarizes the inhibitory effect data (IC50) of some compounds combined with CPT-11 on the proliferation of human colon cancer cell SW620.

Assay [2] has as its system human breast cancer cell MDA-MB-468. As to the kind of experiment: MTT proliferation assay, MDA-MB-468. Conditions: Homo sapiens, MDA-MB-468, 168 h, 7 days, single agent, read-out: IC50, inhibition of proliferation of MDA-MB-468. In kind it is cell-based. As for the experimental part: Determination of the Inhibitory Effect of the Compound of Example 2 and its Analogues on the Proliferation of Human Breast Cancer Cell MDA-MB-468 Using MTT Assay
The human breast cancer cells MDA-MB-468 were cultured in RPMI 1640 medium with 10% FBS and used at 90% confluence. The MDA-IVB-468 cells were digested with trypsinase and centrifuged at 800 rpm for 5 minutes. The supernatant was discarded and the cell pellets were resuspended with fresh medium and counted. Cells were seeded to 96-well cell culture plates with appropriate cell density and incubated overnight at 37° C., 5% CO2. […] 5 μL of solutions of each concentration was added to 120 μL of medium (diluted by 25 times) and mixed by shaking. The culture medium of cells cultured overnight was discarded and replaced with 195 μL/well of fresh medium (RPMI 1640+5% FBS) and 5 μL/well of diluted medium containing the test compound of corresponding concentrations (the final concentration of DMSO was 1%), and the culture plate was then returned to 5% CO2 incubator at 37° C. for 7 days (on the fourth day, dressing was changed once and culture was continued). On the day of experiment, culture medium was discarded and replaced with 100 μL/well of fresh serum-free DMEM medium containing MTT (0.5 mg/mL), and the culture was continued. After 4 hours, medium was discarded and replaced with 100 μL/well of DMSO, the plates were shaken for 10 minutes in darkness and the absorbance was measured at the wavelengths of 552 and 693 nm using a multi-function plate reader. Graph Pad Prism 6.0 was used to analyze the data. The inhibitory effects of compounds on cell proliferation were plotted based on cell viability vs. the logarithm of compound concentration. Cell viability %=(ODcompound−ODbackground)/(ODDMSO−ODbackground)×100.
Table 4 summarizes the inhibitory effect data (IC50) of some compounds on the proliferation of human breast cancer cell MDA-MB-468.

T1 sequence (Q13315 whole entry): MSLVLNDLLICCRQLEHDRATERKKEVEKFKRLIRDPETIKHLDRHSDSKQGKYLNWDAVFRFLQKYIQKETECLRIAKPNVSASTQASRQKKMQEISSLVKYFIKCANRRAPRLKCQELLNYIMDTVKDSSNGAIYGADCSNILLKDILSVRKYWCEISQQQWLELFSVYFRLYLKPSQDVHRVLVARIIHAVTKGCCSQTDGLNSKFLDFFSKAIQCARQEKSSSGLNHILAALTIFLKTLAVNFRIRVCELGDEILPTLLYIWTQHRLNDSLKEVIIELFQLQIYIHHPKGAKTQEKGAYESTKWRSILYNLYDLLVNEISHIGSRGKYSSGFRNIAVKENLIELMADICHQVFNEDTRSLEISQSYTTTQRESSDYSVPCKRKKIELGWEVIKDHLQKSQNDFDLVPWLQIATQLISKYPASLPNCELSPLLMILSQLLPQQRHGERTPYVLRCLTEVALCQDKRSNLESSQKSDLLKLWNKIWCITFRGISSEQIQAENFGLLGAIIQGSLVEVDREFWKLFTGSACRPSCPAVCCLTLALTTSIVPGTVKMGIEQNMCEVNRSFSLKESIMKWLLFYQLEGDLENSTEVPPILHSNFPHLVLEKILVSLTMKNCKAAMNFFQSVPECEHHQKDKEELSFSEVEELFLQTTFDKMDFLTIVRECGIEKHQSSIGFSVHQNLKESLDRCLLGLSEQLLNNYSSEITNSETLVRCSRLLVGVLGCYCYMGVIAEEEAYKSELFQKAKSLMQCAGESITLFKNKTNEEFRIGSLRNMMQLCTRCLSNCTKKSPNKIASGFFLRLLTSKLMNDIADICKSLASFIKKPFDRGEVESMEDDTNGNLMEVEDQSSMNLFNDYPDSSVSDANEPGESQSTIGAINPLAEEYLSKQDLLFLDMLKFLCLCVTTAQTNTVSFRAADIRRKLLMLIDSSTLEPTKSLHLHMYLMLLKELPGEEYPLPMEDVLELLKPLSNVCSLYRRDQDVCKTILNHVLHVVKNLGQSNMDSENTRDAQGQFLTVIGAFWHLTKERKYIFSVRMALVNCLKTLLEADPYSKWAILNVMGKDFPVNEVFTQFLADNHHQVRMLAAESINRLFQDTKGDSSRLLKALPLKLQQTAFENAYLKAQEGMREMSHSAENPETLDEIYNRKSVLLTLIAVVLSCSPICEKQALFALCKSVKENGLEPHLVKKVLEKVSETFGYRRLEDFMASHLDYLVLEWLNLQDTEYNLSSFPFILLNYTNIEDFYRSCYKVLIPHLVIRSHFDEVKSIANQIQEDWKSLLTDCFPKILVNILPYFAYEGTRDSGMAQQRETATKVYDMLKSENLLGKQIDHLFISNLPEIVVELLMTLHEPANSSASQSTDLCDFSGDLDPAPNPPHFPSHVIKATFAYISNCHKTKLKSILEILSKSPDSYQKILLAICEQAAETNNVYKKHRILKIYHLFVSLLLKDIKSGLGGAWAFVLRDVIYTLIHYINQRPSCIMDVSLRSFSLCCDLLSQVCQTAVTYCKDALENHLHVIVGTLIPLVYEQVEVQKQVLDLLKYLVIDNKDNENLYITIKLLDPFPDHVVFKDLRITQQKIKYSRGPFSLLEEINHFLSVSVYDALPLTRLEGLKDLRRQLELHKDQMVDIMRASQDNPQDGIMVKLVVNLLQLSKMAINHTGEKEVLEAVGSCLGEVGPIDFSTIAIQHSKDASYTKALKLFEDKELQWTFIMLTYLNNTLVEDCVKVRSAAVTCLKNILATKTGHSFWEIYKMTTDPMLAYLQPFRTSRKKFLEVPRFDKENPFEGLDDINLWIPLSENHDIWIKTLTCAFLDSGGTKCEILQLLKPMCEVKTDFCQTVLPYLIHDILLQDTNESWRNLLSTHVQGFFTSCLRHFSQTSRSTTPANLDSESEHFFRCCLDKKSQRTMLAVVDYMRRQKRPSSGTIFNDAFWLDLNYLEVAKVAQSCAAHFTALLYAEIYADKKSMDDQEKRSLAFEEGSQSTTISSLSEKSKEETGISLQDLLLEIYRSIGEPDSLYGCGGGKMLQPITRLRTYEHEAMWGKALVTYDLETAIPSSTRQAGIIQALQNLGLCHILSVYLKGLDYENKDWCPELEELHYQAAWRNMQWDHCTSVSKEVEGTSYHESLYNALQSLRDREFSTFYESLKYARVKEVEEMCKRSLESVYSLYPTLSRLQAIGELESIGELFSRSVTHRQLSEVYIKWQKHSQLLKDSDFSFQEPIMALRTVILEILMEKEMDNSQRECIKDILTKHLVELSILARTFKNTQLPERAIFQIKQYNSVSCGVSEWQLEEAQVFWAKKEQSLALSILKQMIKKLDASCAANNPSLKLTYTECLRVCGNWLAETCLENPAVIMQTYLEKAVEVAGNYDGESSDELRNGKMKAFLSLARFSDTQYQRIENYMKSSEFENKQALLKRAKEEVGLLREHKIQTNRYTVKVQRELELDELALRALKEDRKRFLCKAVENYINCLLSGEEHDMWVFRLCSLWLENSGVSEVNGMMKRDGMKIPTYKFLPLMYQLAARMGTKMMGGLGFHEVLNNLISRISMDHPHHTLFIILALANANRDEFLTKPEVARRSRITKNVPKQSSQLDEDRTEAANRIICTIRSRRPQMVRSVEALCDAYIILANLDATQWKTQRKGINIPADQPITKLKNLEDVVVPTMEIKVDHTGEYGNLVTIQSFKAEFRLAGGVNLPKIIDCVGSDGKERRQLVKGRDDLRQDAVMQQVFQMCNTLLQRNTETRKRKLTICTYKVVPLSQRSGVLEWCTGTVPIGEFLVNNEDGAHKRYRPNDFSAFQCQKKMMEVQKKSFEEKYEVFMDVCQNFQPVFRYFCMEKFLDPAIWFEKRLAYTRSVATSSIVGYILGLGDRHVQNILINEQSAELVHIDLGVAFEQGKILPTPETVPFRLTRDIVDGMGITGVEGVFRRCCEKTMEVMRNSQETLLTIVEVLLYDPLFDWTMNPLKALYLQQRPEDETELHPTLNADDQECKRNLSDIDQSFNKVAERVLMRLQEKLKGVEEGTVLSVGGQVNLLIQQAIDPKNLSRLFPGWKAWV

As to `Cc1nc(C2CCOCC2)n2c1cnc1ccc(-c3ccc(N4CCC(N(C)C)CC4)c(C(F)(F)F)c3)cc12` [Example 8], on ATM kinase, the inhibition at 0.0001 µM was determined as 27%, the inhibition at 0.001 µM is 94% and the inhibition at 0.01 µM came to 99%. Further, the IC50 in assay [1] came out at 0.0241 µM. In addition, the IC50 in assay [2] amounted to 0.0248 µM.
Consider `Cc1nc(N2C[C@@H](C)O[C@@H](C)C2)n2c1cnc1ccc(-c3ccc(OCCCN4CCC4)nc3)cc12` [Example 31, (2S,6R)-4-(8-(6-(3-(azetidin-1-yl)propoxy)pyridin-3-yl)-3-methylimidazo[1,5-a]quinoxalin-1-yl)-2,6-dimethylmorpholine], for which the IC50 amounted to 0.00062 µM against ATM kinase; 0.0101 µM in assay [1] (Homo sapiens, SW-620, 120 h); 0.0092 µM in assay [2].
Regarding `Cc1nc(N2C[C@@H](C)O[C@@H](C)C2)n2c1cnc1ccc(-c3ccc(OCCCN4CCCCC4)nc3)cc12` [Example 33, (2S,6R)-2,6-dimethyl-4-(3-methyl-8-(6-(3-(piperidin-1-yl)propoxy)pyridin-3-yl)imidazo[1,5-a]quinoxalin-1-yl)morpholine], at ATM kinase, the IC50 was 0.0002 µM, the inhibition at 0.0001 µM came out at 28%, the inhibition at 0.001 µM is 92% and the inhibition at 0.01 µM was 100%. Moreover, the IC50 in assay [1] (Homo sapiens, SW-620, 120 h) turned out to be 0.0183 µM. Also, in assay [2], the IC50 worked out at 0.0185 µM.
Turning to `Cc1nc(C2CCOCC2)n2c1cnc1ccc(-c3ccc(OCCCN(C)C)c(C(F)(F)F)c3)cc12` [Example 5, N,N-dimethyl-3-(4-(3-methyl-1-(tetrahydro-2H-pyran-4-yl)imidazo[1,5-a]quinoxalin-8-yl)-2-(trifluoromethyl)phenoxy)propan-1-amine], on ATM kinase, the inhibition at 0.0001 µM came to 47%, the inhibition at 0.001 µM stood at 97% and the inhibition at 0.01 µM turned out to be 99%. Also, the IC50 in assay [1] is 0.0195 µM. Also, the IC50 in assay [2] was determined as 0.0219 µM.
As for `Cc1nc(N2C[C@@H](C)O[C@@H](C)C2)n2c1cnc1ccc(-c3ccc(OCCCN4CCOCC4)nc3)cc12` [Example 58, (2S,6R)-2,6-dimethyl-4-(3-methyl-8-(6-(3-morpholinopropoxy)pyridin-3-yl)imidazo[1,5-a]quinoxalin-1-yl)morpholine], the IC50 was 0.00019 µM on ATM kinase; 0.0233 µM in assay [1] (Homo sapiens, SW-620, 120 h); 0.0178 µM in assay [2].
For the molecule `CCNC1CCN(c2ccc(-c3ccc4ncc5c(C)nc(C6CCOCC6)n5c4c3)cc2C(F)(F)F)CC1` [Example 11, N-ethyl-1-(4-(3-methyl-1-(tetrahydro-2H-pyran-4-yl)imidazo[1,5-a]quinoxalin-8-yl)-2-(trifluoromethyl)phenyl)piperidin-4-amine], on ATM kinase, the inhibition at 0.0001 µM turned out to be 11%, the inhibition at 0.001 µM was found to be 78% and the inhibition at 0.01 µM turned out to be 97%. Further, the IC50 in assay [1] came to 0.03 µM. The IC50 in assay [2] worked out at 0.0311 µM.
As to `Cc1nc(C2CCOCC2)n2c1cnc1ccc(-c3ccc(OCCCN4CCCCC4)nc3)cc12` [Example 12, 3-methyl-8-(6-(3-(piperidin-1yl)propoxy)pyridin-3yl)-1-(tetrahydro-2H-pyran-4-yl)imidazo[1,5-a]quinoxaline], at ATM kinase, the inhibition at 0.0001 µM turned out to be 40%, the inhibition at 0.001 µM is 91% and the inhibition at 0.01 µM amounted to 98%. In assay [1], the IC50 came to 0.0157 µM. For the same molecule, the IC50 in assay [2] stood at 0.0144 µM.
Consider `Cc1nc(N2CCOCC2)n2c1cnc1ccc(-c3ccc(OCCCN(C)C)nc3)cc12` [Example 14, N,N-dimethyl-3-((5-(3-methyl-1-morpholinylimidazo[1,5-a]quinoxalin-8-yl)pyridin-2-yl)oxy)propan-1-amine], for which the inhibition at 0.01 µM at ATM kinase turned out to be 93%. Besides, the IC50 in assay [1] stood at 0.0397 µM; in assay [2], 0.026 µM.
In the case of `Cc1nc(C(C)C)n2c1cnc1ccc(-c3ccc(N4CCC(N(C)C)CC4)c(F)c3)cc12` [Example 24, N,N-dimethyl-1-(2-fluoro-4-(1-isopropyl-3-methylimidazo[1,5-a]quinoxalin-8-yl)phenyl)piperidin-4-amine], at ATM kinase, the inhibition at 0.0001 µM came out at 30%, the inhibition at 0.001 µM is 84% and the inhibition at 0.01 µM came to 98%. Also, the IC50 in assay [1] is 0.0208 µM. In assay [2], the IC50 stood at 0.011 µM.
With `Cc1nc(C(C)C)n2c1cnc1ccc(-c3ccc(OCCCN(C)C)c(F)c3)cc12` [Example 20, N,N-dimethyl-3-(2-fluoro-4-(1-isopropyl-3-methylimidazo[1,5-a]quinoxalin-8-yl)phenoxy)propan-1-amine], the inhibition at 0.001 µM on ATM kinase came to 82%. The IC50 was 0.0359 µM in assay [1] and 0.0213 µM in assay [2].
As for `Cc1nc(N2C[C@@H](C)O[C@@H](C)C2)n2c1cnc1ccc(-c3ccc(NCCCN(C)C)nc3)cc12` [Example 46, N^1-(5-(1-((2S,6R)-2,6-dimethylmorpholino)-3-methylimidazo[1,5-a]quinoxalin-8-yl)pyridin-2-yl)-N^3,N^3-dimethylpropane-1,3-diamine], the IC50 was 0.00018 µM against ATM kinase; 0.0469 µM in assay [1] (Homo sapiens, SW-620, 120 h); 0.0402 µM in assay [2].
On to `Cc1nn(C)cc1-c1ccc2ncc3c(C)nc(C4CCOCC4)n3c2c1` [Example 13, 8-(1,3-dimethyl-1H-pyrazol-4-yl)-3-methyl-1-(tetrahydro-2H-pyran-4-yl)imidazo[1,5-a]quinoxaline], for which the inhibition at 0.01 µM on ATM kinase came out at 15%. The IC50 was over 1 µM in assay [1] and 0.782 µM in assay [2].
As for `Cc1nc(N2C[C@@H](C)O[C@@H](C)C2)n2c1cnc1ccc(-c3ccc(N4CCC(N)CC4)nc3)cc12` [Example 48, 1-(5-(1-((2S,6R)-2,6-dimethylmorpholino)-3-methylimidazo[1,5-a]quinoxalin-8-yl)pyridin-2-yl)piperidin-4-amine], the IC50 against ATM kinase is 0.00046 µM; in assay [1] (Homo sapiens, SW-620, 120 h), 0.0121 µM; in assay [2] it was 0.0076 µM.
